Patent US20180273528A1 (LES LABORATOIRES SERVIER, priority 2015, published 2018)

Assays:
[1] = target: T1, His-TEV-DYRK1A Kinase domain (aa127-485) (Homo sapiens, UniProt Q13627); experiment: Kinase ADP assay (ADP Hunter), DYRK1A kinase domain; assay type: biochemical; conditions: 20 μM ATP
T1 construct: His-TEV-DYRK1A Kinase domain (aa127-485); His tag (N); TEV protease cleavage site (N)
Outline: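 Readout is ADP Hunter fluorescence at 590 nm, developed 20 min at 30 °C after the kinase step. That step ran 10 min at 30 °C in Hepes pH 7.4 (10 mM MgCl2, 1 mM EGTA, 0.02% Tween20) containing 20 μM ATP, 40 μM peptide and 20 nM enzyme plus compound.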

DYRK1B = target: T2, DYRK1B (Homo sapiens, UniProt Q9Y463); experiment: Kinase TR-FRET assay, DYRK1B; assay type: biochemical; conditions: full-length human kinase, 10 μM ATP
T2 construct: full-length human kinases from Carna Biosciences; purchased Carna Biosciences 04-131
Outline: (§1)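 Compounds tested at 0.1 nM to 30 μM in reaction buffer; reaction stopped with 10 mM EDTA. Phosphorylated MBP detected with 1 nM Europium-labelled anti-phospho-Thr232 antibody by TR-FRET.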

CLK1 = target: T3, CLK1 (Homo sapiens, UniProt P49759); experiment: Kinase TR-FRET assay, CLK1; assay type: biochemical; conditions: full-length human kinase, 10 μM ATP
T3 construct: full-length human kinases from Carna Biosciences; purchased Carna Biosciences 04-126
Experimental: Inhibition of the enzymatic activity of human kinases was evaluated in a Time-Resolved Fluorescence Resonance Energy Transfer (TR-FRET) assay in 384-well reaction plates. […] Test compounds of the invention were added in reaction buffer at a range of concentrations from 0.1 nM to 30 μM. Following addition of EDTA (Sigma E7889, 10 mM) to stop the reaction, Europium-labelled mouse monoclonal antibody recognizing phospho-Thr232 in MBP (Perkin Elmer TRF0201, 1 nM) was added.

CDK9 = target: T4, CDK9 (Homo sapiens, UniProt P50750); experiment: Kinase TR-FRET assay, CDK9; assay type: biochemical; conditions: full-length human kinase, 10 μM ATP
T4 construct: full-length human kinases from Carna Biosciences; purchased Carna Biosciences 04-110
Outline: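 Full-length human CDK9 (0.9 ng/μl) incubated 100 min at room temperature with 10 μM ATP, 100 nM ULight-MBP peptide and compound (0.1 nM–30 μM) in 50 mM HEPES pH 7.4, 1 mM EGTA, 10 mM MgCl2, 2 mM DTT, 0.01% Tween20. Stopped with 10 mM EDTA, then 1 nM Eu-anti-phospho-Thr232 MBP antibody added for 1 h. TR-FRET read at 665/620 nm with 340 nm excitation.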

DYRK1A [2] = target: T5, DYRK1A (Homo sapiens, UniProt Q13627); experiment: Kinase TR-FRET assay, DYRK1A; assay type: biochemical; design: full-length, wild-type human DYRK1A (NM_001396) with an HA tag; expressed in transfected cells; host or cells: human U2-OS osteosarcoma cells, transient transfection of a pcDNA3.1 plasmid; conditions: full-length human kinase, 10 μM ATP
Outline: as §1

DYRK1A [3] = target: T5, DYRK1A; experiment: Cellular DYRK1 autophosphorylation assay in U2-OS cells; assay type: cell-based; design: full-length, wild-type human DYRK1A (NM_001396) with an HA tag; expressed in transfected cells; host or cells: human U2-OS osteosarcoma cells, transient transfection of a pcDNA3.1 plasmid; conditions: U2-OS cells transfected with HA-tagged human DYRK1A, 5 hours exposure; read-out: IC50 (μM) P-Ser520-Dyrk1A -Cell assay
Outline: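 IC50 derived from dose-response curves of phospho-Ser520-DYRK1A (blots normalised to total DYRK1A), quantified by either immunoblotting with chemiluminescence or Mesoscale electrochemiluminescent ELISA. Compounds applied to U2-OS cells across several concentrations for 5 hours.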

T2 sequence (Q9Y463 whole entry): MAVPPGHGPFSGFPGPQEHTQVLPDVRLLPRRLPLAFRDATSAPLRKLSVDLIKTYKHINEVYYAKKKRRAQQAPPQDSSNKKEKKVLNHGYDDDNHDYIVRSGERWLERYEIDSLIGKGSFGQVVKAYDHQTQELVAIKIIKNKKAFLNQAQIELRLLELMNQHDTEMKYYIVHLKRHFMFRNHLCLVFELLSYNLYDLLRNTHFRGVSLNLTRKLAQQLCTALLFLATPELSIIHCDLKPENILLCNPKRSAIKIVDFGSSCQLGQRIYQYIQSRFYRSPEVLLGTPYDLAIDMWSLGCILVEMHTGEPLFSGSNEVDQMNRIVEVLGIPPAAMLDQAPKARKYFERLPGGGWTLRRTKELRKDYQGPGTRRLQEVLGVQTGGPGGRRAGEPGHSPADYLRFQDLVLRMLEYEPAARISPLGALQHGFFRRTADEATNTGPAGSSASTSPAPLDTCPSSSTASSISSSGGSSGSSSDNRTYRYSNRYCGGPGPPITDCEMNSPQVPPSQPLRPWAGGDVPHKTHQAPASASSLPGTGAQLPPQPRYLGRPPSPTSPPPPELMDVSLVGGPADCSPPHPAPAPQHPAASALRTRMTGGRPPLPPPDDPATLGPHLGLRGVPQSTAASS
T3 sequence (P49759 1-526 isoform P49759-3): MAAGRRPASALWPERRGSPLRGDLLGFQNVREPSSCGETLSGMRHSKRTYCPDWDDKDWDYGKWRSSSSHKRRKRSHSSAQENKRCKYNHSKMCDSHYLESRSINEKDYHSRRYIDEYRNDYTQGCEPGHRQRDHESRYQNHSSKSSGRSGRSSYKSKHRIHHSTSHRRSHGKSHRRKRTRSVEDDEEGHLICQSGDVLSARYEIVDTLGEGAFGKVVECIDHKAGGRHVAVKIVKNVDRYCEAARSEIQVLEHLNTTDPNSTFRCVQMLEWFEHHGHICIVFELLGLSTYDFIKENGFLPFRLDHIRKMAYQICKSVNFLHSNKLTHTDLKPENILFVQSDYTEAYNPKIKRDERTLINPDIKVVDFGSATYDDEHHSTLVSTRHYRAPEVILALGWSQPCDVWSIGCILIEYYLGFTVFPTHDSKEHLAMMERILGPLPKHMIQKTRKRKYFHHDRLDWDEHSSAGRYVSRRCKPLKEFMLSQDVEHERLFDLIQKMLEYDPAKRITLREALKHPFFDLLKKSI
T4 sequence (P50750 whole entry): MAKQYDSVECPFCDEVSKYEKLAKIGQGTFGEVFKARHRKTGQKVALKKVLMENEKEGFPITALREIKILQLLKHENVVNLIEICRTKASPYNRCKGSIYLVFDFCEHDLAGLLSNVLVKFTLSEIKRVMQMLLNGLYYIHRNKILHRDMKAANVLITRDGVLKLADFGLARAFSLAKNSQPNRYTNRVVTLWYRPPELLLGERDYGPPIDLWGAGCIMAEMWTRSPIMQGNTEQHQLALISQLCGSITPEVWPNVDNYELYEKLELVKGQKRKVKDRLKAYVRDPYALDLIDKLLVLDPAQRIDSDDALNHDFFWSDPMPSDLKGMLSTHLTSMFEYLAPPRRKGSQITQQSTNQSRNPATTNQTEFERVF
T4 sequence (O60563 whole entry partner): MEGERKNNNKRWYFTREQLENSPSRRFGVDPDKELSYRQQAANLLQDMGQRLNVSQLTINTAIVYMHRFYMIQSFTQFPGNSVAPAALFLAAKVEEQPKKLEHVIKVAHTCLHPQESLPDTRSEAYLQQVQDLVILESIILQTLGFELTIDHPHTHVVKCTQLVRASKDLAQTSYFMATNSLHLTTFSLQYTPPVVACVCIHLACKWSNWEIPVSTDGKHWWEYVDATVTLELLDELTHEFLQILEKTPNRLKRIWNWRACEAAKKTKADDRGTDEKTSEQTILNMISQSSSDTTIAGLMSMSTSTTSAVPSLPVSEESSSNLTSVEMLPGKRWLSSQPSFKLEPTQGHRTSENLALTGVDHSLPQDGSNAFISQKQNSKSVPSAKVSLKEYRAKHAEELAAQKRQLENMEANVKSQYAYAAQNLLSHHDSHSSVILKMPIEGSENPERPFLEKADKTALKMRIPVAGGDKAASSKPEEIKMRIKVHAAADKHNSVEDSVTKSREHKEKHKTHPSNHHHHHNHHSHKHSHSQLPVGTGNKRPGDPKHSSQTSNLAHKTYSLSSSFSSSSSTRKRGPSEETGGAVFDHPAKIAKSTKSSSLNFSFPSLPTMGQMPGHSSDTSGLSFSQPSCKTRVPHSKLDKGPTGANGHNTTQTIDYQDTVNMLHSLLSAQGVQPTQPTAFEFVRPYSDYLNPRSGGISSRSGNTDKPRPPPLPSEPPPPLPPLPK

| Compound | IC50 [1] [µM] | IC50 (DYRK1B) [µM] | IC50 (CLK1) [µM] | IC50 (CDK9) [µM] | IC50 (DYRK1A [2]) [µM] | IC50 (DYRK1A [3]) [µM] |
| --- | --- | --- | --- | --- | --- | --- |
| COC1CCCCC1CCn1c(C)nc2ccc(-c3cc(N)nc(N)c3)nc21 (stereo not drawn) [Example 95, 4-{3-[2-(2-methoxycyclohexyl)ethyl]-2-methyl-3H-imidazo[4,5-b]pyridin-5-yl}pyridine-2,6-diamine] | 0.012 | 0.011 | 0.029 | 1.8 | 0.003 | 0.021 |
| Cc1nc2ccc(-c3cc(N)nc(N)c3)nc2n1CCc1ccc(F)cc1 [Example 96, 4-{3-[2-(4-fluorophenyl)ethyl]-2-methyl-3H-imidazo[4,5-b]pyridin-5-yl}pyridine-2,6-diamine] | 0.011 | 0.01 | 0.02 | 3.09 | 0.004 | 0.075 |
| Cc1nc2ccc(-c3cc(N)nc(N)c3)nc2n1CC(F)F [Example 115, 4-[3-(2,2-difluoroethyl)-2-methyl-3H-imidazo[4,5-b]pyridin-5-yl]pyridine-2,6-diamine] | 0.013 | 0.006 | 0.028 | 5.69 | 0.003 | 0.034 |
| CCCCc1nc2ccc(-c3cc(N)nc(N)c3)nc2n1CCCC [Example 144, 4-(2,3-dibutyl-3H-imidazo[4,5-b]pyridin-5-yl)pyridine-2,6-diamine] | 0.016 | 0.012 | 0.238 | > 3 | 0.008 | 0.128 |
| CCCCn1c(C)nc2ccc(-c3cc(N)nc(N)c3)nc21 [Example 148, 4-(3-butyl-2-methyl-3H-imidazo[4,5-b]pyridin-5-yl)pyridine-2,6-diamine] | 0.007 | 0.006 | 0.016 | 1.24 | 0.002 | 0.1 |
| COCCCCn1c(C)nc2ccc(-c3cc(N)nc(N)c3)nc21 [Example 151, 4-[3-(4-methoxybutyl)-2-methyl-3H-imidazo[4,5-b]pyridin-5-yl]pyridine-2,6-diamine] | 0.013 | 0.008 | 0.019 | 2.87 | 0.004 | 0.17 |
| Cc1nc2ccc(-c3cc(N)nc(N)c3)nc2n1CCOc1ccccc1 [Example 153, 4-[2-methyl-3-(2-phenoxyethyl)-3H-imidazo[4,5-b]pyridin-5-yl]pyridine-2,6-diamine] | 0.01 | 0.003 | 0.016 | 1.02 | 0.001 | 0.035 |
| CCCCn1c(CC)nc2ccc(-c3cc(N)nc(N)c3)nc21 [Example 157, 4-(3-butyl-2-ethyl-3H-imidazo[4,5-b]pyridin-5-yl)pyridine-2,6-diamine] | 0.021 | 0.003 | 0.058 | > 10 | 0.011 | 0.153 |
| Cc1nc2ccc(-c3cc(N)nc(N)c3)nc2n1C[C@H](C)Oc1cccc(Br)n1 [Example 180] | 0.013 | 0.01 | 0.016 | 0.467 | 0.005 | 0.044 |
| Cc1nc2ccc(-c3cc(N)nc(N)c3)nc2n1CCOc1cccc(F)c1 [Example 199, 4-{3-[2-(3-fluorophenoxy)ethyl]-2-methyl-3H-imidazo[4,5-b]pyridin-5-yl}pyridine-2,6-diamine] | 0.012 | 0.007 | 0.016 | 1.1 | 0.003 | 0.053 |
| Cc1nc2ccc(-c3cc(N)nc(N)c3)nc2n1CCOc1cccc(Cl)c1 [Example 200] | 0.018 | 0.01 | 0.02 | 1.52 | 0.005 | 0.069 |
| COc1ccccc1OCCn1c(C)nc2ccc(-c3cc(N)nc(N)c3)nc21 [Example 206, 4-{3-[2-(2-methoxyphenoxy)ethyl]-2-methyl-3H-imidazo[4,5-b]pyridin-5-yl}pyridine-2,6-diamine] | 0.017 | 0.007 | 0.028 | > 3 | 0.005 | 0.094 |
| Cc1nc2ccc(-c3cc(N)nc(N)c3)nc2n1CCOc1ccc2[nH]ccc2c1 [Example 210, 4-{3-[2-(1H-indol-5-yloxy)ethyl]-2-methyl-3H-imidazo[4,5-b]pyridin-5-yl}pyridine-2,6-diamine] | 0.008 | 0.006 | 0.018 | 1.01 | 0.003 | 0.047 |
| Cc1nc2ccc(-c3cc(N)nc(N)c3)nc2n1CCOc1c(F)cccc1F [Example 212, 4-{3-[2-(2,6-difluorophenoxy)ethyl]-2-methyl-3H-imidazo[4,5-b]pyridin-5-yl}pyridine-2,6-diamine] | 0.007 | 0.04 | 0.017 | > 10 | 0.003 | 0.083 |
| Nc1cc(-c2ccc3nc(Cl)n(C4CCCC4)c3n2)cc(N)n1 [Example 220, 4-(2-chloro-3-cyclopentyl-3H-imidazo[4,5-b]pyridin-5-yl)pyridine-2,6-diamine] | 0.011 | 0.013 | 0.019 | 0.724 | 0.003 | 0.075 |
| N#Cc1nc2ccc(-c3cc(N)nc(N)c3)nc2n1C1CCCC1 [Example 221, 3-cyclopentyl-5-(2,6-diaminopyridin-4-yl)-3H-imidazo[4,5-b]pyridine-2-carbonitrile] | 0.008 | 0.012 | 0.016 | 0.317 | 0.027 | 0.043 |
| N#Cc1nc2ccc(-c3cc(N)nc(N)c3)nc2n1CCOc1ccccc1 [Example 222, 5-(2,6-diaminopyridin-4-yl)-3-(2-phenoxyethyl)-3H-imidazo[4,5-b]pyridine-2-carbonitrile] | 0.023 | 0.031 | 0.062 | > 3 | 0.018 | 0.244 |
| N#Cc1nc2ccc(-c3cc(N)nc(N)c3)nc2n1CCCC(F)(F)F [Example 226, 5-(2,6-diaminopyridin-4-yl)-3-(4,4,4-trifluorobutyl)-3H-imidazo[4,5-b]pyridine-2-carbonitrile] | 0.013 | 0.01 | 0.023 | 0.713 | 0.005 | 0.148 |
